Experimental data published in patent US5401777A, “Use of preparations of curcuma plants” (priority 1992, dated 1995).

Legend:
[1] = tested on: formation of peroxidized arachidonic acid products; assay: inhibition of Fe/ascorbate-induced formation of peroxidized arachidonic acid products in the cell-free system; type: biochemical
Description: (d) the formation of peroxidized arachidonic acid products in the cell-free system with an IC50 of approx. 1 μmol/l.

[2] = tested on: experimental stomach ulcers; details: rats; cited from earlier work
[3] = tested on: histamine-induced stomach ulcers; details: guinea pigs; Bhatia et al. 1964; cited from earlier work
stomach mucosa = details: oral, daily doses of 100 mg/kg over 6 days; Prasad et al. 1976; cited from earlier work

COc1cc(/C=C/C(=O)CC(=O)/C=C/c2ccc(O)c(OC)c2)ccc1O [curcumin]
concentration in which the antioxidative effect is already achieved [1]: 1 μm | effect on experimental stomach ulcers [2]: does not cure | protective effect against histamine-induced stomach ulcers [3]: did not find any protective effect | effect of high doses on the stomach mucosa (stomach mucosa): damaged the stomach mucosa
